Source: ChEMBL document CHEMBL4118154, “Discovery of evocalcet, a next-generation calcium-sensing receptor agonist for the treatment of hyperparathyroidism” (Bioorg Med Chem Lett, 2018)
Structures can show the parent of a compound that is named as a salt.

Experiments:
Cytochrome P450 2D6 = Cytochrome P450 2D6 (Homo sapiens, UniProt P10635); experiment: Inhibition of recombinant human CYP2D6 expressed in bacterial membranes using AMMC as substrate preincubated for 10 mins followed by NADPH addition measured after 30 mins by fluorescence assay; assay type: ADME, cell membranes
Sequence of Cytochrome P450 2D6 (P10635 whole entry): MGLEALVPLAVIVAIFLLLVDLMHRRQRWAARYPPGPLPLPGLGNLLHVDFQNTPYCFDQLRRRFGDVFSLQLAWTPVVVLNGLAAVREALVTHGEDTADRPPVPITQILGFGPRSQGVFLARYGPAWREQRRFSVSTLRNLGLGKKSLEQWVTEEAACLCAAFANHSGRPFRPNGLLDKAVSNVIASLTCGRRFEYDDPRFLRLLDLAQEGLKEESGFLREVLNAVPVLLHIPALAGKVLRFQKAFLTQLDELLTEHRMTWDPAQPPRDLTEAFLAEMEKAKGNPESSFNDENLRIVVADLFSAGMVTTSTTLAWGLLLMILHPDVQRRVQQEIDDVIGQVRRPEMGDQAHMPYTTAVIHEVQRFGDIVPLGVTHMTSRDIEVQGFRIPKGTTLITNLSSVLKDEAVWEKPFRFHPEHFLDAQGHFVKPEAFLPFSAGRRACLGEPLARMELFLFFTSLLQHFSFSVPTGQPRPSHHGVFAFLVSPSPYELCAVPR

[1] = target: T1, Extracellular calcium-sensing receptor (Homo sapiens, UniProt P41180); experiment: Agonist activity at human CaSR expressed in CHO cells assessed as increase in intracellular calcium mobilization after 1 hr by Fura-2 dye-based fluorescence assay; assay type: functional, cell-based
T1 sequence (P41180 whole entry): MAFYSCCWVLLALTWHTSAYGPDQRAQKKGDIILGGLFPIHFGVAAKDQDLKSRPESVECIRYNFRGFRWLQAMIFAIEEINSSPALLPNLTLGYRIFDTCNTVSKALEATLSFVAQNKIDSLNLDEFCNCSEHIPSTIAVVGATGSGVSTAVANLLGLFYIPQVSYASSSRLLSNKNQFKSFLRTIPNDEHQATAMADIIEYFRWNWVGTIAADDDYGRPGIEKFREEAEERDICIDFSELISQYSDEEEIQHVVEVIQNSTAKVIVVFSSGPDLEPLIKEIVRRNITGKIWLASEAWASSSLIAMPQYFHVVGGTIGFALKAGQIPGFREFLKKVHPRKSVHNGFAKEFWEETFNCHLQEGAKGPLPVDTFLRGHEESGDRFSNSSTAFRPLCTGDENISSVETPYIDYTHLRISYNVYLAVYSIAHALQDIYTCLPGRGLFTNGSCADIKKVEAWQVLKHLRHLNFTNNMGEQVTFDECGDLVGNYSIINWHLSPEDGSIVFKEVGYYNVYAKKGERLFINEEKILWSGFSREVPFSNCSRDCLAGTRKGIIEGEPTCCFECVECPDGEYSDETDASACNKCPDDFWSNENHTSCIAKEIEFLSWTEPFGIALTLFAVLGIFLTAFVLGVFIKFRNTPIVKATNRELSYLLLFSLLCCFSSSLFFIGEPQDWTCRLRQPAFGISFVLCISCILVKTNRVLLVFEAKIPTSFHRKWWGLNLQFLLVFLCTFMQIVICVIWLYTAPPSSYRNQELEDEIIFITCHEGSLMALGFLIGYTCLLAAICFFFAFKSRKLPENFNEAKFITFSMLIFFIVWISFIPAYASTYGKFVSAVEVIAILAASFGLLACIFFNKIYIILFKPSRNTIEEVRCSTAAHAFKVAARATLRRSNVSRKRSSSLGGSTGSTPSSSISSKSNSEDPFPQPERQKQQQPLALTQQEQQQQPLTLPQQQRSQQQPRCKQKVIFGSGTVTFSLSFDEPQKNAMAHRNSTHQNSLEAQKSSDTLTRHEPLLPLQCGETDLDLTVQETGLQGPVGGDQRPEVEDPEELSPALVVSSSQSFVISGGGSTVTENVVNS

CYP2D6 [2] = target: T2, CYP2D6 (Homo sapiens, UniProt P10635); experiment: Inhibition of CYP2D6 (unknown origin) at 1 uM relative to control; assay type: ADME
T2 sequence (P10635 whole entry): as the sequence (P10635 whole entry) above

[3] = Intrinsic clearance in rat liver microsomes assessed per protein; assay type: ADME, microsome; settings: read-out: CLH
[4] = target: T3, Extracellular calcium-sensing receptor (Rattus norvegicus, UniProt P48442); experiment: Agonist activity at CaSR in rat parathyroid cells assessed as inhibition of PTH (1 to 84 residues) production in presence of Cacl2 by ELISA; assay type: functional, cell-based
T3 sequence (P48442 whole entry): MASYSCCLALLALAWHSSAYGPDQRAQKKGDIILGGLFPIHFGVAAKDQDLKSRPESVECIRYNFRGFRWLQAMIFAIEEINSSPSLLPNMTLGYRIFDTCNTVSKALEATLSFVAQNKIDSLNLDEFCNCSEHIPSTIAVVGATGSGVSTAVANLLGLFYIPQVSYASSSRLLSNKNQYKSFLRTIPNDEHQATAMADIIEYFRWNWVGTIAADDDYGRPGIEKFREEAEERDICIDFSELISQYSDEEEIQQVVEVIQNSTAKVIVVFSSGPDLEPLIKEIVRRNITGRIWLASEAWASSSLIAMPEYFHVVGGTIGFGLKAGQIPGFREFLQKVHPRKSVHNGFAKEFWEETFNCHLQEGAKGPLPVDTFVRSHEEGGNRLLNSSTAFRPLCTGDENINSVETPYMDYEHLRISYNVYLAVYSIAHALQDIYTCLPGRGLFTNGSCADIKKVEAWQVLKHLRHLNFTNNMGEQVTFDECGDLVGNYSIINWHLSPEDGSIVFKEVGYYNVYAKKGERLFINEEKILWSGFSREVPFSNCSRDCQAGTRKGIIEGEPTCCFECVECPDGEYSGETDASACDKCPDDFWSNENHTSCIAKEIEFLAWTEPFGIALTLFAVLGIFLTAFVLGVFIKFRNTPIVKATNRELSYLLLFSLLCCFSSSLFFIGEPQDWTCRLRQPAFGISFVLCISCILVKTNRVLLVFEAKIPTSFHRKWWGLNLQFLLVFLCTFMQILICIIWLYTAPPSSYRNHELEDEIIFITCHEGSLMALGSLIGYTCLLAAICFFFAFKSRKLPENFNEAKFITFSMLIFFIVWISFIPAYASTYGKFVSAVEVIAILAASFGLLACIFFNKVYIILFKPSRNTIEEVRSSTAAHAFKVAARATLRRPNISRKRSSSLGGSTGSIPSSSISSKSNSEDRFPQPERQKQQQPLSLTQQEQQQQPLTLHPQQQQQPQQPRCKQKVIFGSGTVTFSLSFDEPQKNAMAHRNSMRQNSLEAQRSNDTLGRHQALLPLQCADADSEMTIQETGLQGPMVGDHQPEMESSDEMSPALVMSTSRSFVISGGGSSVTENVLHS

[5] = Intrinsic clearance in human liver microsomes assessed per protein; assay type: ADME, microsome; settings: read-out: CLH
CYP2D6 [6] = target: T2, CYP2D6; experiment: Inhibition of CYP2D6 (unknown origin) at 0.1 uM relative to control; assay type: ADME
CYP2D6 [7] = target: T2, CYP2D6; experiment: Inhibition of CYP2D6 (unknown origin) at 10 uM relative to control; assay type: ADME

SMILES	IC50 (Cytochrome P450 2D6)	EC50 [1]	inhibition at 1 µM (CYP2D6 [2])	microsomal CLint [3]	IC50 [4]	microsomal CLint [5]	inhibition at 0.1 µM (CYP2D6 [6])	inhibition at 10 µM (CYP2D6 [7])
C[C@@H](N[C@@H]1CCN(c2cccc(C(F)(F)F)c2)C1)c1cccc2ccccc12		0.43 µM	60%	302 µL/min/mg	0.0097 µM	421 µL/min/mg	3%	
C[C@@H](N[C@H]1CCN(c2ccc(C(=O)O)cc2)C1)c1cccc2ccccc12			14.1%	92 µL/min/mg	0.008 µM	97 µL/min/mg	0%	14.1%
C[C@@H](N[C@@H]1CCN(c2ccc(C(=O)O)cc2)C1)c1cccc2ccccc12		8.8 µM						
C[C@@H](N[C@H]1CCCN(c2ccc(C(=O)O)cc2)C1)c1cccc2ccccc12		1.1 µM			> 0.1 µM			
C[C@@H](N[C@H]1CCCN(c2cccc(OC(F)(F)F)c2)C1)c1cccc2ccccc12		0.6 µM	86.4%	442 µL/min/mg	0.0318 µM	225 µL/min/mg	79%	92.5%
C[C@@H](N[C@H]1CCN(c2cccc(OC(F)(F)F)c2)C1)c1cccc2ccccc12		0.6 µM	88.4%	176 µL/min/mg	0.0117 µM	84 µL/min/mg	85.9%	
C[C@@H](N[C@H]1CCN(c2cccc(C(F)(F)F)c2)C1)c1cccc2ccccc12		0.45 µM	87.5%	370 µL/min/mg	0.0131 µM	171 µL/min/mg	85.1%	

Second part, the compound after the results:

IC50 (Cytochrome P450 2D6)	EC50 [1]	inhibition at 1 µM (CYP2D6 [2])	microsomal CLint [3]	IC50 [4]	microsomal CLint [5]	inhibition at 0.1 µM (CYP2D6 [6])	inhibition at 10 µM (CYP2D6 [7])	SMILES
< 0.1 µM	0.18 µM							C[C@@H](NCCCc1cccc(C(F)(F)F)c1)c1cccc2ccccc12 [CINACALCET HYDROCHLORIDE]
	0.32 µM	61.2%	270 µL/min/mg	0.0043 µM	206 µL/min/mg	15.8%		C[C@@H](N[C@@H]1CCN(c2cccc(OC(F)(F)F)c2)C1)c1cccc2ccccc12
	0.12 µM	62.5%		0.0078 µM		15.8%	79.8%	C[C@@H](N[C@H]1CCN(c2ccc(OC(F)(F)F)cc2)C1)c1cccc2ccccc12
	0.19 µM	82.6%	231 µL/min/mg	0.0014 µM	370 µL/min/mg	54%	85.2%	C[C@@H](N[C@@H]1CCCN(c2cccc(OC(F)(F)F)c2)C1)c1cccc2ccccc12
	0.05 µM	3.4%	667 µL/min/mg	0.00091 µM	197 µL/min/mg	4.4%	30.7%	C[C@@H](N[C@H]1CCN(c2ccc(C(=O)NCCO)cc2)C1)c1cccc2ccccc12
	0.23 µM			0.116 µM				C[C@@H](N[C@@H]1CCN(c2ccc(OC(F)(F)F)cc2)C1)c1cccc2ccccc12
	0.38 µM	78.7%	610 µL/min/mg	0.0021 µM	662 µL/min/mg	54.8%	87.6%	C[C@@H](N[C@@H]1CCCN(c2cccc(C(F)(F)F)c2)C1)c1cccc2ccccc12
	0.017 µM		42 µL/min/mg	0.00047 µM	312 µL/min/mg		75.3%	C[C@@H](N[C@H]1CCN(c2ccc(-c3nn[nH]n3)cc2)C1)c1cccc2ccccc12
